Laboratory results taken from patent US9302996B2, “Continuous arycyclic compound” (MITSUBISHI TANABE PHARMA CORPORATION, priority 2010, dated 2016).
Where two headings read alike, the source gives them in different places.

Key:
Type in all cases: in vivo
KK-Ay mice = test: Weight gain-inhibiting action, hypoglycemic effect, insulin in blood plasma lowering action in KK-Ay mice; details: Mus musculus, 336 h, male KK-Ay mice, high fat diet, 30 mg/kg/day oral, 2 weeks
Procedure: To 8 weeks-old male KK-Ay mice were provided high fat diet (Oriental Yeast Co., Ltd, 60 cal % fat), and Test compound suspended in 0.2% carboxymethylcellulose solution was orally administered once a day. Oral administration was continued for 2 weeks, and a weight gain-inhibiting rate of the Test compound was calculated by using a weight gain amount of the solvent control group during the test period as 100%. After final administration, the mice were fasted overnight, and blood was collected from tail vein. Measurement of a blood-sugar level was carried out by using glucose Cα Test Wako (Wako Pure Chemical Industries, Ltd.), and measurement of insulin in blood plasma was carried out by using a mouse insulin measurement kit (Morinaga Institute of Biological Science, Inc.).

ICR mice = test: Triglyceride (TG) in blood plasma increase-inhibiting action due to lipid administration; details: Mus musculus; male ICR mice, 5 mg/kg oral, lipid (Intralipos 20%) after 30 minutes, plasma TG 2 hours after lipid; read-out: Inhibiting rate of TG-increase in blood plasma (5 mg/kg)
Procedure: 6 to 9 weeks-old male ICR mice were fasted overnight, and Test compound suspended in 0.2% carboxymethyl cellulose solution was orally administered to the mice. A lipid (Intralipos 20%, OTSUKA PHARMACEUTICAL CO., LTD., 10 mL/kg) was orally administered after 30 minutes. Blood was collected from tail vein immediately before the lipid administration, and after 2 hours from the same to obtain blood plasma. Measurement of TG in blood plasma was carried out by using a triglyceride E Test Wako (Wako Pure Chemical Industries, Ltd.), and an increased value of TG in blood plasma by administration of the lipid was calculated. An increased value of TG in blood plasma in a solvent control group was used as a control, and an inhibiting rate in increase of TG in blood plasma in the Test compound administered group was calculated.

C57BL/6J mice = test: Antifeeding activity (high fat diet intake up to 4 hours); details: Mus musculus, male C57BL/6J mice, 5 mg/kg oral, food ingested up to 4 hours, read-out: Antifeeding rate (5 mg/kg)
Procedure: 7 to 10 weeks-old male C57BL/6J mice were fasted overnight, and the test compound suspended in 0.2% carboxymethylcellulose solution was orally administered. Immediately after the administration, high fat diet (Oriental Yeast Co., Ltd, 60 cal % fat) was provided and freely fed. An amount of food ingested up to 4 hours was measured, and a lowering rate (an antifeeding rate) of the amount of food ingested in the Test compound administered group was calculated as compared to that of the solvent control group as a control.

[1] = read-out: Hypoglycemic action (30 mg/kg/day)
[2] = read-out: Insulin in blood plasma-lowering action (30 mg/kg/day)
[3] = read-out: Weight gain-inhibiting action (30 mg/kg/day)

SMILES | inhibition in vivo at 30 mg/kg (KK-Ay mice; [1]) | inhibition in vivo at 30 mg/kg (KK-Ay mice; [2]) | inhibition in vivo at 30 mg/kg (KK-Ay mice; [3]) | inhibition in vivo at 5 mg/kg (ICR mice) | inhibition in vivo at 5 mg/kg (C57BL/6J mice)
CC(C)(COc1ccc(-c2ccc(-c3ncc(C(F)(F)F)[nH]3)nc2)cn1)C(=O)O [Example 66] | 10% | 38% | 46% | 83% | 76%
Cc1cc(-c2ccc(OCC(C)(C)C(=O)O)cc2)ncc1-c1ncc(C(F)(F)F)[nH]1 [Example 5-3), 2,2-dimethyl-3-(4-{4-methyl-5-[5-(trifluoromethyl)-1H-imidazol-2-yl]pyridin-2-yl}-phenoxy)propanoic acid] | 55% | 56% | 48% | 71% | 37%
Cc1nc(OCC(C)(C)C(=O)O)ccc1-c1ccc(-c2ncc(C(F)(F)F)[nH]2)cc1 [Example 74] | 56% | 51% | 47% | 50% | 60%
CC(C)(COc1ccc(-c2ccc(-c3ncc(C(F)(F)F)[nH]3)c(F)c2)cn1)C(=O)O [Example 76] | 65% | 81% | 69% | 78% | 61%
Cc1cc(OCC(C)(C)C(=O)O)ncc1-c1ccc(-c2ncc(C3(C(F)(F)F)CC3)[nH]2)nc1 [Example 36] | 23% | 19% | 59% | 69% | 63%
CCC(CC)(COc1ccc(-c2ccc(-c3ncc(C(F)(F)F)[nH]3)cn2)cn1)C(=O)O [Example 22] | 40% | 47% | 30% | 76% | 69%
O=C(O)C1(COc2ccc(-c3ccc(-c4ncc(C(F)(F)F)[nH]4)cn3)cc2)CCC1 [Example 14] | 23% | 27% | 17% | 69% | 66%
Cc1cc(OCC(C)(C)C(=O)O)ncc1-c1cnc(-c2ncc(C(F)(F)F)[nH]2)c(Cl)c1 [Example 112] | 49% | 61% | 47% | 67% | 52%
CC(C)(COc1ccc(-c2ccc(-c3ncc(C4(C(F)(F)F)CC4)[nH]3)c(F)c2)cn1)C(=O)O [Example 45] | 59% | 56% | 42% | 71% | 72%
Cc1cc(OCC2(C(=O)O)CCC2)ncc1-c1ccc(-c2ncc(C(F)(F)F)[nH]2)c(F)c1 [Example 98-3), 1-{[(5-{3-fluoro-4-[5-(trifluoromethyl)-1H-imidazol-2-yl]phenyl}-4-methylpyridin-2-yl)oxy]methyl}cyclobutanecarboxylic acid] | – | – | – | 105% | 89%
Cc1cc(OCC2(C(=O)O)CC2)ncc1-c1ccc(-c2ncc(C(F)(F)F)[nH]2)nc1 [Example 132] | – | – | – | 65% | 47%
CCC(CC)(COc1cc(C)c(-c2ccc(-c3ncc(C(F)(F)F)[nH]3)c(Cl)c2)cn1)C(=O)O [Example 140] | – | – | – | 68% | 78%
CC(C)(COc1ccc(-c2ccc(-c3ncc(CC4CC4)[nH]3)cn2)cc1)C(=O)O [Example 27] | – | – | – | 69% | 66%
Cc1cc(OCC2(C(=O)O)CC2)ncc1-c1ccc(-c2ncc(C(F)(F)F)[nH]2)c(F)c1 [Example 133] | – | – | – | 75% | 83%
COc1cc(OCC(C)(C)C(=O)O)ccc1-c1ccc(-c2ncc(C(F)(F)F)[nH]2)cn1 [Example 86-3), 3-[3-methoxy-4-[5-[5-(trifluoromethyl)-1H-imidazol-2-yl]-2-pyridyl]phenoxy]-2,2-dimethylpropanoic acid] | – | – | – | 68% | 21%
Cc1cc(OCC(C)(C)C(=O)O)ncc1-c1ccc(-c2ncc(CC(C)C)[nH]2)cc1 [Example 104] | – | – | – | 67% | 62%
CC(C)(COc1ccc(-c2ccc(-c3ncc(C4CCCCCC4)[nH]3)cn2)cc1)C(=O)O [Example 31] | – | – | – | 86% | 65%

SMILES | inhibition in vivo at 30 mg/kg (KK-Ay mice; [1]) | inhibition in vivo at 30 mg/kg (KK-Ay mice; [2]) | inhibition in vivo at 30 mg/kg (KK-Ay mice; [3]) | inhibition in vivo at 5 mg/kg (ICR mice) | inhibition in vivo at 5 mg/kg (C57BL/6J mice)
CCC(CC)(COc1ccc(-c2ccc(-c3ncc(C(F)(F)F)[nH]3)cn2)cc1)C(=O)O [Example 19-3), 2-ethyl-2-[[4-[5-[4-(trifluoromethyl)-1H-imidazol-2-yl]-2-pyridyl]phenoxy]methyl]butanoic acid] | – | – | – | 89% | 78%
Cc1nc(OCC(C)(C)C(=O)O)ccc1-c1ccc(-c2ncc(C(F)(F)F)[nH]2)cn1 [Example 10] | – | – | – | 62% | 62%
CC(C)(COc1ccc(-c2ccc(-c3nc(C(F)(F)F)c[nH]3)cc2)cc1)C(=O)O [Example 93-3), 3-({4′-[5-(trifluoromethyl)-1H-imidazol-2-yl]biphenyl-4-yl}oxy)-2,2-dimethylpropanoic acid] | – | – | – | 67% | 68%
Cc1cc(OCC(C)(C)C(=O)O)ncc1-c1ccc(-c2ncc(CC3CC3)[nH]2)cc1 [Example 108] | – | – | – | 52% | 62%
CC(C)CCc1cnc(-c2ccc(-c3ccc(OCC(C)(C)C(=O)O)cc3)nc2)[nH]1 [Example 25] | – | – | – | 54% | 81%
Cc1cc(OCC2(C(=O)O)CCC2)ncc1-c1ccc(-c2ncc(C(F)(F)F)[nH]2)c(Cl)c1 [Example 101-3), 1-{[(5-{3-chloro-4-[5-(trifluoromethyl)-1H-imidazol-2-yl]phenyl}-4-methylpyridin-2-yl)oxy]methyl}cyclobutanecarboxylic acid] | – | – | – | 71% | 57%
CC(C)Cc1cnc(-c2ccc(-c3ccc(OCC(C)(C)C(=O)O)nc3)nc2)[nH]1 [Example 59] | – | – | – | 74% | 50%
Cc1cc(OCC(C)(C)C(=O)O)ncc1-c1ccc(-c2ncc(CC3CC3)[nH]2)c(C)c1 [Example 109] | – | – | – | 50% | 41%
Cc1cc(OCC2(C(=O)O)CCC2)ncc1-c1ccc(-c2ncc(C(F)(F)F)[nH]2)nc1 [Example 97-5), 1-[({4-methyl-6′-[5-(trifluoromethyl)-1H-imidazol-2-yl]-3,3′-bipyridin-6-yl}oxy)methyl]cyclobutanecarboxylic acid] | – | – | – | 102% | 92%
O=C(O)C1(COc2ccc(-c3ccc(-c4ncc(C(F)(F)F)[nH]4)cn3)cn2)CCCC1 [Example 17] | – | – | – | 69% | 82%
Cc1cc(OCC2(C(=O)O)CC2)ncc1-c1cnc(-c2ncc(C(F)(F)F)[nH]2)c(F)c1 [Example 136] | – | – | – | 64% | 62%
CC(C)(COc1ccc(-c2ccc(-c3ncc(C(F)(F)F)[nH]3)cn2)c(F)c1)C(=O)O [Example 64] | – | – | – | 60% | 78%
CCCc1cnc(-c2ccc(-c3ccc(OCC(C)(C)C(=O)O)cc3)nc2)[nH]1 [Example 32] | – | – | – | 71% | 42%
CC(C)(COc1ncc(-c2ccc(-c3ncc(C(F)(F)F)[nH]3)cc2)cn1)C(=O)O [Example 67] | – | – | – | 70% | 58%
Cc1cc(OCC2(C(=O)O)CCC2)ncc1-c1cnc(-c2ncc(C(F)(F)F)[nH]2)c(F)c1 [Example 137] | – | – | – | 81% | 83%
CCC(CC)c1cnc(-c2ccc(-c3ccc(OCC(C)(C)C(=O)O)cc3)nc2)[nH]1 [Example 29] | – | – | – | 52% | 28%
Cc1cc(OCC(C)(C)C(=O)O)ncc1-c1ccc(-c2ncc(CC3CC3)[nH]2)nc1 [Example 118] | – | – | – | 64% | 61%
